System: 958767-090-R-J1-PDC spheroid growth
Experiment: Anticancer human tumor 958767-090-R-J1-PDC patient-derived head and neck squamous carcinoma cell line growth inhibition [IpAb]
Conditions: spheroids with HUVEC and MSC; for IC50: curve of first compound; for viability, T/C: stronger effect = lower value
In short: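 Combinations with ipatasertib or abemaciclib were tested on tumour spheroids holding HUVEC (25%) and MSC (15%) alongside 60% malignant cells. Top concentration was at or near clinical Cmax (10 microM if undefined), descending in half-log steps.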

[1] = second compound 0.1 µM, first compound 0.0316 µM
[2] = second compound 0.1 µM, first compound 0.1 µM
[3] = second compound 0.1 µM, first compound 0.316 µM
[4] = second compound 0.1 µM, first compound 1 µM
[5] = second compound 0.1 µM, first compound 3.16 µM
[6] = second compound 0.1 µM, first compound 10 µM
[7] = second compound 0.316 µM, first compound 0.0316 µM
[8] = second compound 0.316 µM, first compound 0.1 µM
[9] = second compound 0.316 µM, first compound 0.316 µM
[10] = second compound 0.316 µM, first compound 1 µM
[11] = second compound 0.316 µM, first compound 3.16 µM
[12] = second compound 0.316 µM, first compound 10 µM
[13] = second compound 1 µM, first compound 0.0316 µM
[14] = second compound 1 µM, first compound 0.1 µM
[15] = second compound 1 µM, first compound 0.316 µM
[16] = second compound 1 µM, first compound 1 µM
[17] = second compound 1 µM, first compound 3.16 µM
[18] = second compound 1 µM, first compound 10 µM
[19] = second compound 3.16 µM, first compound 0.0316 µM
[20] = second compound 3.16 µM, first compound 0.1 µM
[21] = second compound 3.16 µM, first compound 0.316 µM
[22] = second compound 3.16 µM, first compound 1 µM
[23] = second compound 3.16 µM, first compound 3.16 µM
[24] = second compound 3.16 µM, first compound 10 µM
[25] = second compound 10 µM, first compound 0.0316 µM
[26] = second compound 10 µM, first compound 0.1 µM
[27] = second compound 10 µM, first compound 0.316 µM
[28] = second compound 10 µM, first compound 1 µM
[29] = second compound 10 µM, first compound 3.16 µM
[30] = second compound 10 µM, first compound 10 µM
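Also: spheroids exposed to agents for 7 days.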
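For viability, T/C in this document: 100% = DMSO vehicle control wells.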

Structure (SMILES): C=CC(=O)N1CCN(c2nc(=O)n(-c3c(C)ccnc3C(C)C)c3nc(-c4c(O)cccc4F)c(F)cc23)C(C)C1 (stereo not given) + CC(C)NCC(C(=O)N1CCN(c2ncnc3c2C(C)CC3O)CC1)c1ccc(Cl)cc1
- IC50 (second compound 0.1 µM): 5.02 µM
- IC50 (second compound 0.316 µM): 1.87 µM
- IC50 (second compound 1 µM): 0.835 µM
- IC50 (second compound 3.16 µM): 1.58 µM
- IC50 (second compound 10 µM): 1.05 µM
- viability, T/C [1]: 82%
- viability, T/C [2]: 86.5%
- viability, T/C [3]: 84.4%
- viability, T/C [4]: 86.4%
- viability, T/C [5]: 59.9%
- viability, T/C [6]: 35.2%
- viability, T/C [7]: 78.5%
- viability, T/C [8]: 71.1%
- viability, T/C [9]: 72.3%
- viability, T/C [10]: 54.7%
- viability, T/C [11]: 44.8%
- viability, T/C [12]: 28.7%
- viability, T/C [13]: 72.8%
- viability, T/C [14]: 57.4%
- viability, T/C [15]: 63.3%
- viability, T/C [16]: 48.4%
- viability, T/C [17]: 34%
- viability, T/C [18]: 19.2%
- viability, T/C [19]: 63.9%
- viability, T/C [20]: 66.9%
- viability, T/C [21]: 53.8%
- viability, T/C [22]: 54.5%
- viability, T/C [23]: 44.9%
- viability, T/C [24]: 16%
- viability, T/C [25]: 56.2%
- viability, T/C [26]: 54.6%
- viability, T/C [27]: 64.9%
- viability, T/C [28]: 48.1%
- viability, T/C [29]: 29.6%
- viability, T/C [30]: 5.8%

Structure (SMILES): CC(C)(C)c1cnc(CSc2cnc(NC(=O)C3CCNCC3)s2)o1 + CC(C)NCC(C(=O)N1CCN(c2ncnc3c2C(C)CC3O)CC1)c1ccc(Cl)cc1
- IC50 (second compound 0.1 µM): 0.119 µM
- IC50 (second compound 0.316 µM): 0.115 µM
- IC50 (second compound 1 µM): 0.0957 µM
- IC50 (second compound 3.16 µM): 0.101 µM
- IC50 (second compound 10 µM): 0.041 µM
- viability, T/C (second compound 0.1 µM, first compound 0.00949 µM): 98.5%
- viability, T/C (second compound 0.1 µM, first compound 0.03 µM): 95.1%
- viability, T/C (second compound 0.1 µM, first compound 0.0949 µM): 61.2%
- viability, T/C (second compound 0.1 µM, first compound 0.3 µM): 3.88%
- viability, T/C (second compound 0.1 µM, first compound 0.949 µM): 2.72%
- viability, T/C (second compound 0.1 µM, first compound 3 µM): 2.41%
- viability, T/C (second compound 0.316 µM, first compound 0.00949 µM): 80.6%
- viability, T/C (second compound 0.316 µM, first compound 0.03 µM): 82.5%
- viability, T/C (second compound 0.316 µM, first compound 0.0949 µM): 59.5%
- viability, T/C (second compound 0.316 µM, first compound 0.3 µM): 2.24%
- viability, T/C (second compound 0.316 µM, first compound 0.949 µM): 2.31%
- viability, T/C (second compound 0.316 µM, first compound 3 µM): 2.18%
- viability, T/C (second compound 1 µM, first compound 0.00949 µM): 72%
- viability, T/C (second compound 1 µM, first compound 0.03 µM): 68%
- viability, T/C (second compound 1 µM, first compound 0.0949 µM): 50.4%
- viability, T/C (second compound 1 µM, first compound 0.3 µM): 1.77%
- viability, T/C (second compound 1 µM, first compound 0.949 µM): 1.65%
- viability, T/C (second compound 1 µM, first compound 3 µM): 2.3%
- viability, T/C (second compound 3.16 µM, first compound 0.00949 µM): 63.6%
- viability, T/C (second compound 3.16 µM, first compound 0.03 µM): 62.9%
- viability, T/C (second compound 3.16 µM, first compound 0.0949 µM): 52.6%
- viability, T/C (second compound 3.16 µM, first compound 0.3 µM): 1.26%
- viability, T/C (second compound 3.16 µM, first compound 0.949 µM): 1.8%
- viability, T/C (second compound 3.16 µM, first compound 3 µM): 1.85%
- viability, T/C (second compound 10 µM, first compound 0.00949 µM): 52.6%
- viability, T/C (second compound 10 µM, first compound 0.03 µM): 68.9%
- viability, T/C (second compound 10 µM, first compound 0.0949 µM): 21.1%
- viability, T/C (second compound 10 µM, first compound 0.3 µM): 1.62%
- viability, T/C (second compound 10 µM, first compound 0.949 µM): 1.38%
- viability, T/C (second compound 10 µM, first compound 3 µM): 1.87%

Structure (SMILES): Cn1nccc1Nc1nccc(-c2ccn(C(CO)c3ccc(Cl)c(F)c3)c(=O)c2)n1 (stereo not given) + CC(C)NCC(C(=O)N1CCN(c2ncnc3c2C(C)CC3O)CC1)c1ccc(Cl)cc1
- IC50 (second compound 0.1 µM): 0.495 µM
- IC50 (second compound 0.316 µM): 0.137 µM
- IC50 (second compound 1 µM): 0.064 µM
- IC50 (second compound 3.16 µM): 0.0385 µM
- IC50 (second compound 10 µM): < 0.0316 µM
- viability, T/C [1]: 86.8%
- viability, T/C [2]: 65.5%
- viability, T/C [3]: 56.1%
- viability, T/C [4]: 43.7%
- viability, T/C [5]: 28.2%
- viability, T/C [6]: 13.4%
- viability, T/C [7]: 66.5%
- viability, T/C [8]: 46.4%
- viability, T/C [9]: 44.6%
- viability, T/C [10]: 32.8%
- viability, T/C [11]: 17.7%
- viability, T/C [12]: 5.2%
- viability, T/C [13]: 54.1%
- viability, T/C [14]: 47.9%
- viability, T/C [15]: 36.1%
- viability, T/C [16]: 23.1%
- viability, T/C [17]: 13.2%
- viability, T/C [18]: 3.79%
- viability, T/C [19]: 53.6%
- viability, T/C [20]: 37.1%
- viability, T/C [21]: 27.8%
- viability, T/C [22]: 19.4%
- viability, T/C [23]: 10.4%
- viability, T/C [24]: 4.11%
- viability, T/C [25]: 44.7%
- viability, T/C [26]: 35%
- viability, T/C [27]: 24.1%
- viability, T/C [28]: 15.2%
- viability, T/C [29]: 8.11%
- viability, T/C [30]: 3.09%

— PubChem BioAssay AID2060336 (Molecular Pharmacology Branch, DTP, NCI, 2025)
